Reference: article PMC11357992, “Non-invasive mapping of systemic neutrophil dynamics upon cardiovascular injury” (Nature Cardiovascular Research, 2023)
“And” between values parts separate entries of the source, which are not always exact repeats. Equal values may be shown once. Where no end group is shown, it is not given here. Side-chain parts run from the residue outwards. rhodamine‑labelled PEGylated perfluoro‑15‑crown‑5 ether nanoemulsion = not defined here; carboxyfluorescein = N-terminal fluorescence label (CF)

Columns and labels:
[1] = system: neutrophils from explanted failing human hearts; experiment: hNPPFC uptake by neutrophils from explanted human hearts, flow cytometry; assay type: cell-based; conditions: 10 µl hNPPFCs, 30 min, 37 °C
Description: During orthotopic heart-transplant surgery in patients suffering from terminal heart failure, a tissue specimen of about ~5 g was excised from the apex of the failing heart immediately after explantation. Tissues were immediately transferred to iced BIOPS buffer as described previously. For subsequent isolation of immune cells, heart samples were cut into small pieces and digested with the Multi Tissue Dissociation Kit 2 (Miltenyi; ‘adult rat heart’ protocol) by incubating for 40 min at 37 °C with the specified enzyme mix using the 37C_Multi_G program by gentleMACS. Afterward, 7.5 ml DMEM with 20% FCS was added to stop enzymatic digestion. The sample was applied to a 70-µm cell filter and washed with 3 ml DMEM, followed by centrifugation for 5 min at 300g. The supernatant was discarded, and cells were resuspended in 1 ml DMEM and incubated with 10 µl ^hNPPFCs for 30 min at 37 °C on a vertical shaker. Afterward, cells were washed twice with MACS buffer and stained for CD45, CD11b and CD66b. DAPI staining was performed for exclusion of dead cells. The uptake of ^hNPPFCs into neutrophils (CD45^+CD11b^+CD66b^+) was determined by flow cytometry.

[2] = system: neutrophils, monocytes and lymphocytes from STEMI blood samples; experiment: Uptake of hNPPFCs/ConPFCs by immune cells from patients with STEMI, flow cytometry; assay type: cell-based, human
Description: In total, blood samples from 17 patients with STEMI were used (5 female, 12 male; aged 66.9 ± 13.6 years; troponin T, 3,398 ± 3,520 ng l^−1; creatine kinase, 933.4 ± 685.8 U l^−1; lactate dehydrogenase, 547.8 ± 259.9 U l^−1). Samples were analyzed 24 h after MI. Samples from the oral cavity of patients with pericoronitis (n = 6; 4 female, 2 male; 34.1 ± 21.7 years) and explanted human hearts (n = 3; 1 female, 2 male; 41.6 ± 18.2 years) were processed directly after surgery.
Blood was collected from the vena brachialis, and erythrocytes were lysed as described above. After 10 min of incubation, samples were centrifuged at 350g for 10 min at 20 °C. For isolation of a purified neutrophil fraction, density gradient centrifugation was performed. Five milliliters of Ficoll 1.077 (Sigma-Aldrich) was layered on 5 ml Ficoll 1.119 (Sigma-Aldrich), and 20 ml of whole blood diluted 1:2 with PBS was carefully layered on the Ficoll 1.077. Samples were centrifuged at 350g for 20 min with low acceleration and brake. The neutrophil layer was isolated by careful aspiration and washed with PBS. Isolated cells were resuspended in MACS buffer.
A total of 1 × 10^6 cells were incubated with 10 µl of the emulsion over a period of 80 min at 37 °C. At distinct time points, 50 µl of the samples were transferred into 2 ml of ice-cold MACS buffer and analyzed for rhodamine fluorescence by flow cytometry.

bone marrow neutrophils = experiment: In situ labeling of bone marrow neutrophils and tracking after MI, 1H/19F MRI of bone marrow; assay type: in vivo, mouse; conditions: Depletion of neutrophils by Ly6G Ab injection 48 and 24 h prior to mNPPFC injection; 24 h after injection; individual experiments
[3] = system: circulating lymphocytes, monocytes and neutrophils; experiment: In vivo mNPPFC uptake by circulating immune cells 1 h after injection (Matrigel-LPS or PBS); set-up: species or system mouse; in vivo uptake by circulating lymphocytes, Ctrl, raw data / in vivo uptake by circulating lymphocytes, LPS, raw data / in vivo uptake by circulating monocytes, Ctrl, raw data / in vivo uptake by circulating monocytes, LPS, raw data / in vivo uptake by circulating neutrophils, Ctrl, raw data / in vivo uptake by circulating neutrophils, LPS, raw data: unit not given here
Description: To induce defined inflammatory foci, we adopted a recently developed model of localized subcutaneous inflammation. To this end, ice-cold Matrigel (Corning) was doped with LPS (1 µg µl^−1; Salmonella typhimurium, Sigma-Aldrich) and subcutaneously (s.c.) implanted into the neck of the mice. Twenty-four hours after implanting the plug, neutrophils were isolated from the blood and incubated ex vivo with ^mNPPFCs or ^ConPFCs. In separate experiments, 24 h after implantation, ^mNPPFCs or ^ConPFCs were injected intravenously, and immune cells were isolated from the blood. In further experiments, 1 d after plug injection, mice received 1 mmol per kg BW ^mNPPFCs, and, 24 h later, the bone marrow was analyzed by ^1H/^19F MRI. Thereafter, mice were killed, and neutrophils were isolated from the bone marrow for determination of cell numbers. In each case, immune cells were analyzed by flow cytometry.
Mice were kept in anesthesia (1.5% isoflurane) on a warming plate, and 1 mmol per kg BW ^mNPPFCs or ^ConPFCs were injected i.v. into the tail vein. One hour after injection, blood was collected from the vena cava, and immune cells were isolated. For in vivo uptake studies in the bone marrow, mice were treated as described above and killed 2 h later to isolate neutrophils from the bone marrow and analyzed by flow cytometry.

murine neutrophils = experiment: 19F MRI of isolated murine neutrophils incubated with mNPPFCs/ConPFCs; assay type: cell-based, mouse; conditions: 4 × 10^6 bone marrow neutrophils incubated 3 h at 37 °C with 50 µl PFCs; individual experiments
Description: A total of 4 × 10^6 neutrophils isolated from bone marrow with the EasySep Mouse Neutrophil Enrichment Kit (Stemcell Technologies) were resuspended in 1 ml DMEM and incubated for 3 h with 50 µl ^mNPPFCs or ^ConPFCs at 37 °C. Afterward, cells were washed three times with PBS, fixed with PFA, pelleted by centrifugation and analyzed by ^1H/^19F MRI.
Extended Data Fig. 2 Specific targeting of neutrophils by ^mNPPFCs. a, Flow cytometric analysis of murine blood leukocytes incubated with ^mNPPFCs over 80 min illustrating their predominant uptake by neutrophils (red) as compared to monocytes (blue) and lymphocytes (gray). b, To further validate specificity, binding of CD177 mAb as well as incorporation of ^mNPPFCs under basal and LPS-stimulated conditions were determined. Almost no binding/uptake into classical or non-classical monocytes as well as macrophages or eosinophils could be detected. […] Subsequently, cells were analyzed by ^1H/^19F MRI. Left: ^1H/^19F MRI of centrifugation tubes with neutrophils treated with ^mNPPFCs (lower panel) or ^ConPFCs (upper panel). […] Quantification of ^19F signals (4th column) clearly indicate substantial stronger ^19F uptake in ^mNPPFC-treated neutrophils (red) compared to cells incubated with ^ConPFCs (gray); a.u. = arbitrary units. […]

[4] = mouse, Ctrl (PBS), 1 h after injection, single animals #1-#5
[5] = mouse, Matrigel-LPS, 1 h after injection, single animals #1-#3

Row | Substance | labeling of neutrophils freshly isolated from explanted failing human hearts [1] | uptake by neutrophils, STEMI - hNPPFCs, raw data ([2]; STEMI patients, time 0, single samples #1-#5) | cellular uptake by neutrophils from patients with STEMI versus healthy volunteers ([2]; blood obtained within the first 24 h after MI, flow cytometry and 19F MRI) | 19F signal within the femur and tibia (bone marrow) (bone marrow neutrophils) | incorporation into circulating neutrophils from LPS-challenged versus healthy mice ([3]; 1 h after intravenous application) | in vivo uptake by circulating lymphocytes, Ctrl, raw data [3, 4] | in vivo uptake by circulating monocytes, Ctrl, raw data [3, 4] | in vivo uptake by circulating neutrophils, Ctrl, raw data [3, 4] | in vivo uptake by circulating lymphocytes, LPS, raw data [3, 5] | in vivo uptake by circulating monocytes, LPS, raw data [3, 5] | in vivo uptake by circulating neutrophils, LPS, raw data [3, 5] | 19F signal of neutrophil cell pellet (19F MRI) (murine neutrophils)
1 | hNPPFCs: PEGylated rhodamine-labeled perfluorocarbon nanoemulsion coupled with human neutrophil-specific peptide hNP (carboxyfluorescein-DLVTSKLQVGGGC; also: C-terminal Cys coupled via maleimide-PEG2000-DSPE to rhodamine-labelled perfluorocarbon nanoemulsion) | could be labeled | 84.1 and 69.4 and 87.5 and 76.7 and 84.9 | substantially stronger cellular uptake | – | – | – | – | – | – | – | – | –
2 | mNPPFCs: PEGylated rhodamine-labeled perfluoro-15-crown-5 ether nanoemulsion (maleimide PFCs) coupled with murine neutrophil-specific peptide mNP (carboxyfluorescein-DFYKPMPNLRITGGGC([maleimide‑PEG2000‑DSPE-rhodamine‑labelled PEGylated perfluoro‑15‑crown‑5 ether nanoemulsion]); reading uncertain; also: printed as DFYKPMPNLRIT-GGG-C) | – | – | – | 519273 and 821555 and 523902 and 983614 and 347032 | much stronger | 51.1 and 39.2 and 30.6 and 43.1 and 40.6 | 176 and 127 and 129 and 184 and 145 | 400 and 394 and 676 and 677 and 545 | 38.8 and 38.9 and 26.2 | 150 and 223 and 453 | 3695 and 4794 and 6465 | 349357 a.u. and 181876 a.u. and 297311 a.u. and 383564 a.u. and 306579 a.u.
